Results from US20250129067A1 (Progentos Therapeutics, Inc., priority 2021, published 2025).
pIC50: −log10 of the molar value.

Assays:
[1] = test system: Oligodendrocyte progenitor cells (OPCs); assay: In vitro OPC differentiation assay, MBP expression (immunocytochemistry); conditions: 72 hours of treatment; fold change over vehicle
[2] = test system: Oligodendrocyte progenitor cells (OPCs); assay: In vitro OPC differentiation assay, GPR17 expression (immunocytochemistry); conditions: 3 μM (10× concentration, final 0.3 μM); 72 hours; fold change over vehicle
[3] = test system: GPR17+ cells (newly differentiated oligodendrocytes); assay: In vivo OPC differentiation, GPR17+ cells in brain; conditions: Mus musculus, po, 24 h, read-out: GPR17 Fold Induction (Over Vehicle)
Method: The ability of newly constructed compounds to drive OPC differentiation and myelination in vivo was tested. The ability of these compounds to drive OPC differentiation in vivo was tested using GPR17 as an indicator of newly differentiated oligodendrocytes.
Compounds were delivered PO or IP either QD or BID. Mice were dosed once, transiently, or continuously through the treatment period, which ranged from 1-3 days.
Mice were euthanized by isoflurane exposure and transcardially perfused with 14 mL of PBS (Sigma Cat #P4417-50TAB) followed by 22 mL of 3.2% paraformaldehyde in PBS. The brains were removed and postfixed for a minimum of 24 hours in 20 mL of 3.2% paraformaldehyde.
50-micron floating sections were cut using a Leica VT1200S vibratome. Every 24th section, extending through the antero-posterior extent of the brain, was stained. The selected brain sections were washed three times in PBS for 3 minutes each. The floating sections were incubated in the primary antibodies (see Table 10, below) diluted in blocking solution overnight at room temperature on a shaker. […] The next day, the sections were again washed three times in PBS for 3 minutes each and then incubated in the secondary antibodies diluted in blocking solution for 2 hours at room temperature on a shaker. After incubation, the sections were washed three times in PBS for 3 minutes each and mounted on a slide to be imaged using the Olympus Slide Scanner VS200.
The images were analyzed using a custom protocol developed using Visiopharm software to count GPR17+ cells. Cells were considered GPR17+ if they contained an Olig2 positive nucleus, and intense GPR 17 staining that filled their processes. Statistical analysis was done using one-way ANOVA with multiple comparison in GraphPad Prism software.

[4] = target: PDGFRα (Homo sapiens (Human), UniProt P16234); assay: PDGFRα kinase enzyme assay (Promega PDGFRα Kinase Enzyme System, ADP-Glo); type: biochemical; conditions: 11-point dose response, 10,000 nM to 0.169 nM, 150 uM ATP, BLQ = below limit of quantitation; for pIC50: read-out: IC50 Values on PDGFRα Kinase Inhibition, IC50
In short: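 Purified PDGFRα protein (20 ng) reacted with test compound per the Promega kinase system protocol. ADP formed was measured by ADP-Glo luminescence against a standard curve, giving IC50.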

Sequence of PDGFRα (P16234 24-1089): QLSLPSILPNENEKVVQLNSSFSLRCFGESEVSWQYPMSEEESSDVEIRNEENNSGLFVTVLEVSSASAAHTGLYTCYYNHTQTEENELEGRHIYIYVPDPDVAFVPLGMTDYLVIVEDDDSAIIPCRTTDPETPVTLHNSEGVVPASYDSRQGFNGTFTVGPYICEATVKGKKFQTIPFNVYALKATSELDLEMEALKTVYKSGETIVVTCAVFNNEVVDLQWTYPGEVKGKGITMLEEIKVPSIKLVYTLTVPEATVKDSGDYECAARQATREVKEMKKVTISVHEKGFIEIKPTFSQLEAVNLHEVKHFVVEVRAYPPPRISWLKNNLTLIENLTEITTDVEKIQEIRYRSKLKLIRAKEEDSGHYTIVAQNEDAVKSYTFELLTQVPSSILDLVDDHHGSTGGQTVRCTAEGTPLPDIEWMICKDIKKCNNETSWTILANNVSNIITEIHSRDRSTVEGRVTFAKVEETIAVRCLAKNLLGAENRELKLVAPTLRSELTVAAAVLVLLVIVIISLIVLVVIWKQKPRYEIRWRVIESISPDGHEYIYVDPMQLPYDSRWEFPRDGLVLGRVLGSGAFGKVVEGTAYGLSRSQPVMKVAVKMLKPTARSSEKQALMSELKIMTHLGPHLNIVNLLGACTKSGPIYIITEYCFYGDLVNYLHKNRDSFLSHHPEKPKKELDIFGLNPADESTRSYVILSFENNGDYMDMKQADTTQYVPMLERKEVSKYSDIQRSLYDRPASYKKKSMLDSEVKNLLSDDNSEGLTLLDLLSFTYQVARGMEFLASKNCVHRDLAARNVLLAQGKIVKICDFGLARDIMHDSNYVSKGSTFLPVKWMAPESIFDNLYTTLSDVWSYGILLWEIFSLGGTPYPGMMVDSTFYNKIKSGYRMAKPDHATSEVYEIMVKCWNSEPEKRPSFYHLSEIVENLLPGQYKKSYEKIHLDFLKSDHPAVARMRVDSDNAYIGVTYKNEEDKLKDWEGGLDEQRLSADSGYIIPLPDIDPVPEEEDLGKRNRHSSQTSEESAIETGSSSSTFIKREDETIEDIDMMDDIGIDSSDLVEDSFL

MBP Fold Induction (Over vehicle) [1]	GPR17 Fold Induction (Over Vehicle; 3 μM) [2]	pIC50 [4]	IC50 Values on PDGFRα Kinase Inhibition, IC50 (nM) [4]	Structure (SMILES)	fold induction at 3 mg/kg [3]	fold induction at 30 mg/kg [3]	fold induction at 10 mg/kg [3]	fold induction at 6 mg/kg [3]
48.00	5.84	6.46		Cn1cc(-c2ccc3c(N4CCN(C(=O)N5CCCCC5)CC4)cnn3c2)cn1 [Compound 163, (4-(6-(1-methyl-1H-pyrazol-4-yl)pyrazolo[1,5-a]pyridin-3-yl)piperazin-1-yl)(piperidin-1-yl)methanone]	0.95			
7.25	5.98	5.68		Cn1cc(-c2ccc3c(N4CCN(c5ncc(Cc6cccs6)cn5)CC4)cnn3c2)cn1 [Compound 178, 6-(1-methyl-1H-pyrazol-4-yl)-3-(4-(5-(thiophen-2-ylmethyl)pyrimidin-2-yl)piperazin-1-yl)pyrazolo[1,5-a]pyridine]		0.96		
11.56	7.16	6.51		CC(C)n1cc(-c2ccc3c(N4CCN(C(=O)OC(C)(C)C)CC4)cnn3c2)cn1 [Compound 234, tert-butyl 4-(6-(1-isopropyl-1H-pyrazol-4-yl)pyrazolo[1,5-a]pyridin-3-yl)piperazine-1-carboxylate]	1.15			
1.64	6.40	5.90		Cn1cc(-c2ccc3c(N4CCN(c5ccc(Cc6ccccc6)cn5)CC4)cnn3c2)cn1 [Compound 249, 3-[4-(5-benzylpyridin-2-yl)piperazin-1-yl]-6-(1-methyl-1H-pyrazol-4-yl)pyrazolo[1,5a]pyridine]		10.6		
9.20	4.97	5.94		Cn1cc(-c2ccc3c(N4CCN(c5ncc(Cc6cccnc6)cn5)CC4)cnn3c2)cn1 [Compound 251, 6-(1-methyl-1H-pyrazol-4-yl)-3-{4-[5-(pyridin-3-ylmethyl)pyrimidin-2-yl]piperazin-1-yl}pyrazolo[1,5-a]pyridine]	1.22			
11.66	6.26	6.42		C[C@@H](OC(=O)N1CCN(c2cnn3cc(-c4cnn(C)c4)ccc23)CC1)c1ccccn1 [Compound 260, (1R)-1-pyridin-2-ylethyl 4-[6-(1-methyl-1H-pyrazol-4-yl)pyrazolo[1,5-a]pyridin-3-yl]piperazine-1-carboxylate]			2.79	
20.78	7.72		BLQ	CC(OC(=O)N1CCN(c2cnn3cc(-c4cnn(C)c4)ccc23)CC1)c1ccc(Cl)cc1 (stereo not shown) [Compound 265, 1-(4-chlorophenyl)ethyl 4-(6-(1-methyl-1H-pyrazol-4-yl)pyrazolo[1,5-a]pyridin-3-yl)piperazine-1-carboxylate]	7.92			
2.33	5.62		BLQ	Cc1ccc([C@@H](C)OC(=O)N2CCN(c3cnn4cc(-c5cnn(C)c5)ccc34)CC2)cc1 [Compound 267, (1R)-1-(4-methylphenyl)ethyl 4-[6-(1-methyl-1H-pyrazol-4-yl)pyrazolo[1,5-a]pyridin-3-yl]piperazine-1-carboxylate]	5.75			7.52
13.54	5.70	6.86		C[C@@H](OC(=O)N1CCN(c2cnn3cc(-c4cnn(C)c4)ccc23)CC1)c1cccc2ccccc12 [Compound 269, (1R)-1-(1-naphthyl)ethyl 4-[6-(1-methyl-1H-pyrazol-4-yl)pyrazolo[1,5-a]pyridin-3-yl]piperazine-1-carboxylate]	0.91			
40.13	6.11	6.06		Cn1cc(-c2ccc3c(N4CCN(C(=O)OCc5cccc(C#N)c5)CC4)cnn3c2)cn1 [Compound 272, 3-cyanobenzyl 4-[6-(1-methyl-1H-pyrazol-4-yl)pyrazolo[1,5-a]pyridin-3-yl]piperazine-1-carboxylate]	2.47		5.93	

More lines, now with the values behind:

Structure (SMILES)	MBP Fold Induction (Over vehicle) [1]	GPR17 Fold Induction (Over Vehicle; 3 μM) [2]	pIC50 [4]	IC50 Values on PDGFRα Kinase Inhibition, IC50 (nM) [4]	fold induction at 3 mg/kg [3]	fold induction at 30 mg/kg [3]	fold induction at 10 mg/kg [3]	fold induction at 6 mg/kg [3]
Cn1cc(-c2ccc3c(N4CCN(c5ncc(C(O)CCc6ccccc6)cn5)CC4)cnn3c2)cn1 (stereo not shown) [Compound 175, 1-(2-(4-(6-(1-methyl-1H-pyrazol-4-yl)pyrazolo[1,5-a]pyridin-3-yl)piperazin-1-yl)pyrimidin-5-yl)-3-phenylpropan-1-ol]	6.20	6.34	6.66		5.15			
CCC(CC)C(O)c1cnc(N2CCN(c3cnn4cc(-c5cnn(C)c5)ccc34)CC2)nc1 (stereo not shown) [Compound 177, 2-ethyl-1-(2-(4-(6-(1-methyl-1H-pyrazol-4-yl)pyrazolo[1,5-a]pyridin-3-yl)piperazin-1-yl)pyrimidin-5-yl)butan-1-ol]	32.85	10.12	7.12		2.37			
Cn1cc(-c2ccc3c(N4CCN(c5ncc(Cc6ccncc6)cn5)CC4)cnn3c2)cn1 [Compound 179, 6-(1-methyl-1H-pyrazol-4-yl)-3-(4-(5-(pyridin-4-ylmethyl)pyrimidin-2-yl)piperazin-1-yl)pyrazolo[1,5-a]pyridine]	10.12	5.37	6.18				8.36	
CC(C)(C)OC(=O)N1CCN(c2cnn3cc(-c4cnn(CCCN5CCOCC5)c4)ccc23)CC1 [Compound 233, tert-butyl 4-(6-(1-(3-morpholinopropyl)-1H-pyrazol-4-yl)pyrazolo[1,5-a]pyridin-3-yl)piperazine-1-carboxylate]	46.15	9.27	6.16				2.16	
COc1ccc(Cc2cnc(N3CCN(c4cnn5cc(-c6cnn(C)c6)ccc45)CC3)nc2)cc1 [Compound 254, 3-(4-(5-(4-methoxybenzyl)pyrimidin-2-yl)piperazin-1-yl)-6-(1-methyl-1H-pyrazol-4-yl)pyrazolo[1,5-a]pyridine]	4.04	6.77	6.57				10.7	
CC(c1ccc(F)cc1)c1cnc(N2CCN(c3cnn4cc(-c5cnn(C)c5)ccc34)CC2)nc1 (stereo not shown) [Compound 258, 3-(4-(5-(1-(4-fluorophenyl)ethyl)pyrimidin-2-yl)piperazin-1-yl)-6-(1-methyl-1H-pyrazol-4-yl)pyrazolo[1,5-a]pyridine]	16.36	9.21	6.10		2.82			
C[C@H](OC(=O)N1CCN(c2cnn3cc(-c4cnn(C)c4)ccc23)CC1)c1ccc(Cl)cc1 [Compound 271, (1S)-1-(4-chlorophenyl)ethyl 4-[6-(1-methyl-1H-pyrazol-4-yl)pyrazolo[1,5-a]pyridin-3-yl]piperazine-1-carboxylate]	2.21	6.67	5.83		0.83			
